# In paper PMC4992173, “Divergent synthesis and identification of the cellular targets of deoxyelephantopins” (Nature Communications, 2016):
# Target: T1, PPARγ (Homo sapiens, UniProt P37231)
# T1 sequence (P37231 1-505): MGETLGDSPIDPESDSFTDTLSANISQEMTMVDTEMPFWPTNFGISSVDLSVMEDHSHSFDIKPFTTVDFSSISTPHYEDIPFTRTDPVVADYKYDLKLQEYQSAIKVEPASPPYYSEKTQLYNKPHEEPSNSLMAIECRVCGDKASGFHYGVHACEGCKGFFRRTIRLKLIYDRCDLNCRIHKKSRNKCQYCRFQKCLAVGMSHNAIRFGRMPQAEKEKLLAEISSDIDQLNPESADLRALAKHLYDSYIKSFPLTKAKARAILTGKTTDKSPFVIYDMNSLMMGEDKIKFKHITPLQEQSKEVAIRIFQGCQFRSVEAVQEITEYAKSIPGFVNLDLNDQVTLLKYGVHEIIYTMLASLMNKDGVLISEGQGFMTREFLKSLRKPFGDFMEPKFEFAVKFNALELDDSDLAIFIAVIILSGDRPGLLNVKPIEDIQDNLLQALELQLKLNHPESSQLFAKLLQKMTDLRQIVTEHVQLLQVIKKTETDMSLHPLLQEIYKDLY
# Assay: PPARγ enrichment from MCF7 lysates spiked with recombinant PPARγ (LC-MS/MS LFQ)
# Type: binding
# Settings: for LFQ intensity (PPARG enriched by probe): MCF7 lysates spiked with recombinant PPARγ (30 nM), n=3
# Description: On the basis of the reported interaction between deoxyelephantopin and PPARγ and because MCF7 cells are known to express very low levels of this protein, we investigated in a separate experiment whether deoxyelephantopin indeed covalently binds PPARγ. The recombinant transcription factor was spiked into MCF7 lysates to 30 nM final concentration and successfully enriched by the methacrylate ester probe 24c, as evidenced from LC–MS/MS-based label-free quantification (LFQ)[48]. […] To investigate whether DEP is also capable of binding to endogenous PPARγ directly in living cells, we performed a targeted competitive proteomics experiment in Caco-2, a colon cancer cell line known to express larger amounts of PPARγ[49]. The cells were treated in situ with dimethyl sulfoxide (DMSO) or 20 μM deoxyelephantopin, lysed and treated with 24c. Gratifyingly, endogenous PPARγ was successfully enriched and quantified from the DMSO-treated Caco-2 cells, whereas DEP pretreatment efficiently competed PPARγ enrichment (>95%; Fig. 7a). In yet another control experiment, we expressed hPPARγ in HeLa cells and successfully conducted a gel-based competition experiment once again using DEP as an in situ competitor and 24c-Cy3 as reporter probe (Supplementary Fig. 14).
# Supplementary figure 13: LFQ quantification of PPARγ enrichment from supplemented MCF7 lysates using 10 µM of 23c or 24c as enrichment probes (n = 3). […]
# was processed with MaxQuant (see below).
# In situ global proteomics profiling using LC-MS/MS. Caco- ’ cells/mL) in a 6-well plate, allowed to grow to confluence and to differentiate for 28 days. The wells were washed one time with PBS and treated with either DMSO, 10 µM rosiglitazone, 50 µM T0070907 or 20 µM DEP for 24 hours. Cells were washed two times with PBS and lysates were prepared. Samples (30 µg) were denatured with 6 M urea in 50 mM NH4HCO3, reduced […]
# dark. Samples were diluted to 2 M urea with 50 mM NH4HCO3, and digested with trypsin ([…] for 12 hours at 37 °C. Samples were acidified to a final concentration of 5% acetic acid, desalted over a self-packed C18 spin column and dried. Samples were analyzed by LC-MS/MS (see below) and the MS data was processed with […]
# ARγ nrichment for mass spectrometry. MCF7 lysate (2 mg/ml, 0.5 mL) supplemented µ γ was treated with either 23c or 24c (10 µM, 50x stock in DMSO) for one hour at r.t., followed by click chemistry (see above). […] Samples were analyzed by LC-MS/MS (see below) and the MS data was processed with MaxQuant (see below).
# LC-MS/MS analysis. Peptides were resuspended in water with 0.1% formic acid (FA) and analyzed using Proxeon EASY-nLC 1000 nano-UHPLC coupled to QExactive Plus Quadrupole-Orbitrap mass spectrometer (Thermo Scientific). […]
SMILES,"PPARγ enrichment compared with probe 24c (MCF7 lysates spiked with PPARγ, 10 µM probe)",LFQ intensity (PPARG enriched by probe) (10 µM probe),"Ratio 24c/23c (LFQ intensity of PPARG) (MCF7 lysates spiked with PPARγ, 10 µM probes)"
C#CCC[C@H](O)[C@H]1C(=C)C(=O)O[C@@H]1c1ccccc1 [23c],comparable LFQ value,5.49E+09,–
C#CCC[C@H](OC(=O)C(=C)C)[C@H]1C(=C)C(=O)O[C@@H]1c1ccccc1 [24c],–,5.15E+09,0.94
